We go through two compounds from PubChem BioAssay (NCI).

The structures appear in SMILES notation.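 A five-concentration, 48-hour dose response in 96-well plates underlies each endpoint, interpolated linearly between surrounding concentrations. GI50: concentration for 50% inhibition of growth. TGI is the concentration that stops growth completely.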 Bounds are passed on as bounds.

Some test systems named below: HCT-116 colon; UO-31 renal; HT29 colon; K-562 leukemia; OVCAR-5 ovarian; MOLT-4 leukemia; U251 CNS; NCI-H23 lung; A498 renal; MCF7 breast; SF-295 CNS; SK-MEL-5 melanoma; NCI/ADR-RES ovarian; 786-0 renal; TK-10 renal; CAKI-1 renal; HCT-15 colon.
Common to all, as to assay: NCI-60 cell line screen, 48 h

As for `c1ccc(C2=NOC3(c4ccccc4)CC(c4cccs4)Sc4ccccc4N23)cc1` (stereo unspecified), the GI50 with HCT-116 colon is 28.2 µM; in the test on UO-31 renal it was 89.1 µM; with HT29 colon it was 65.5 µM; with K-562 leukemia, 23.6 µM; in the test on OVCAR-5 ovarian it was 35.1 µM; with MOLT-4 leukemia, 8.75 µM. For the same compound, the GI50 in the test on U251 CNS was 7.58 µM.

For the compound `CNCc1cccc2c1OCCOCCN(C)C(=O)CN(C)S(=O)(=O)c1ccc(cc1)-c1cnc(N)c(n1)C(=O)N2`, the GI50 in the test with UO-31 renal was more than 100 µM; in the test with NCI-H23 lung, 0.299 µM; with HT29 colon, 2.85 µM; with A498 renal it was 1.82 µM; in the test with MCF7 breast, 0.0853 µM; in the test with SF-295 CNS it was 1.77 µM. In addition, the GI50 in the test with SK-MEL-5 melanoma was 6.63 µM; with NCI/ADR-RES ovarian, more than 100 µM; with 786-0 renal, 0.669 µM; in the test on TK-10 renal, 2.71 µM; with CAKI-1 renal, 2.35 µM; in the test on HCT-15 colon it was 6.97 µM. Also, the TGI with UO-31 renal was more than 100 µM; in the test with NCI-H23 lung, 3.47 µM; in the test with HT29 colon, more than 100 µM; in the test on A498 renal it was 7.34 µM; in the test with MCF7 breast, more than 100 µM; with SF-295 CNS, more than 100 µM. Also, the TGI with SK-MEL-5 melanoma is more than 100 µM; with NCI/ADR-RES ovarian, more than 100 µM; in the test on 786-0 renal it was 2.09 µM; with TK-10 renal, more than 100 µM; in the test with CAKI-1 renal it was more than 100 µM; in the test with HCT-15 colon it was more than 100 µM.
